Source: ChEMBL document CHEMBL1136466, “KMI-008, a novel beta-secretase inhibitor containing a hydroxymethylcarbonyl isostere as a transition-state mimic: design and synthesis of substrate-based octapeptides” (Bioorg Med Chem Lett, 2003)
Starred links: 1 amine or outer side, 2 acyl side, 3 side chain; linkers in the order of their positions; H or OH if unused. Non-standard residues stand in square brackets, D forms with d. Residues, ends and D or L forms follow the SMILES beside them. β3hPhe(2R-OH) = O=C([C@H](O)[C@H](Cc1ccccc1)N[*:1])[*:2]; X1 = CC(C)C[C@H](N[*:1])[C@@H](O)C(=O)[*:2]

target: T1, Beta-secretase 1 (Homo sapiens, UniProt P56817); test: Inhibitory activity against Beta-secretase 1 was determined
T1 sequence (P56817 whole entry): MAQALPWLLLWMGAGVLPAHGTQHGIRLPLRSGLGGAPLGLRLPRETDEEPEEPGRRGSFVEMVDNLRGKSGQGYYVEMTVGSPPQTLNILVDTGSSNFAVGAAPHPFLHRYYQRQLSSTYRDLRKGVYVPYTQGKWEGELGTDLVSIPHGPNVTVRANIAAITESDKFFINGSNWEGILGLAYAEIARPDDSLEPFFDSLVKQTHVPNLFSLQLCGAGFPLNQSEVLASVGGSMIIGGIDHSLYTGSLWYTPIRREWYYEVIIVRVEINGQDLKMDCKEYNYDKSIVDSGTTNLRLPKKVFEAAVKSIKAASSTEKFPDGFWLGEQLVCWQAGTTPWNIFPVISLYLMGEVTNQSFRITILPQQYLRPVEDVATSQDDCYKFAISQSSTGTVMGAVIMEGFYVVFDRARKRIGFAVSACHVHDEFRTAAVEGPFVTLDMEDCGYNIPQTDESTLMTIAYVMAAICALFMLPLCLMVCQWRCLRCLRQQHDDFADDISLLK

Compound	IC50 [nM]
CC(C)C[C@H](NC(=O)[C@@H](NC(=O)[C@@H](N)CCC(=O)O)C(C)C)C(=O)N[C@@H](Cc1ccccc1)[C@@H](O)C(=O)N[C@@H](CC(=O)O)C(=O)N[C@@H](C)C(=O)N[C@@H](CCC(=O)O)C(=O)N[C@@H](Cc1ccccc1)C(=O)O [HGLUVALLEUPNSASPALAGLUPHEOH]	413

target: T1, Beta-secretase 1; test: Inhibition of beta-secretase 1 (BACE) was determined at the concentration of 2 uM

Compound	inhibition [%]
CC(C)C[C@H](NC(=O)[C@@H](NC(=O)[C@@H](N)CCC(=O)O)C(C)C)C(=O)N[C@@H](Cc1ccccc1)[C@@H](O)C(=O)N1CSC(C)(C)C1C(=O)N[C@@H](C)C(=O)N[C@@H](CCC(=O)O)C(=O)N[C@@H](Cc1ccccc1)C(=O)O (some centres not stated)	34
CC(C)C[C@H](NC(=O)[C@@H](NC(=O)[C@@H](N)CCC(=O)O)C(C)C)C(=O)N[C@@H](Cc1ccccc1)[C@@H](O)C(=O)N[C@@H](C)C(=O)N[C@@H](C)C(=O)N[C@@H](CCC(=O)O)C(=O)N[C@@H](Cc1ccccc1)C(=O)O	53
CC(C)C[C@H](NC(=O)[C@@H](NC(=O)[C@@H](N)CCC(=O)O)C(C)C)C(=O)N[C@@H](Cc1ccccc1)[C@@H](O)C(=O)N[C@@H](CC(N)=O)C(=O)N[C@@H](C)C(=O)N[C@@H](CCC(=O)O)C(=O)N[C@@H](Cc1ccccc1)C(=O)O	54
CC(C)C[C@H](NC(=O)[C@@H](NC(=O)[C@@H](N)CCC(=O)O)C(C)C)C(=O)N[C@@H](Cc1ccccc1)[C@@H](O)C(=O)N[C@@H](CCC(=O)O)C(=O)N[C@@H](C)C(=O)N[C@@H](CCC(=O)O)C(=O)N[C@@H](Cc1ccccc1)C(=O)O	64
CC(C)C[C@H](NC(=O)[C@@H](NC(=O)[C@@H](N)CCC(=O)O)C(C)C)C(=O)N[C@@H](Cc1ccccc1)[C@@H](O)C(=O)N[C@@H](CCC(N)=O)C(=O)N[C@@H](C)C(=O)N[C@@H](CCC(=O)O)C(=O)N[C@@H](Cc1ccccc1)C(=O)O	41
CC(C)C[C@H](NC(=O)[C@@H](NC(=O)[C@@H](N)CCC(=O)O)C(C)C)C(=O)N[C@H](Cc1ccccc1)[C@@H](O)C(=O)N1CSC(C)(C)C1C(=O)N[C@@H](C)C(=O)N[C@@H](CCC(=O)O)C(=O)N[C@@H](Cc1ccccc1)C(=O)O (some centres not stated)	34
CC(C)C[C@H](NC(=O)[C@@H](NC(=O)[C@@H](N)CCC(=O)O)C(C)C)C(=O)N[C@H](Cc1ccccc1)[C@@H](O)C(=O)N[C@@H](C)C(=O)N[C@@H](C)C(=O)N[C@@H](CCC(=O)O)C(=O)N[C@@H](Cc1ccccc1)C(=O)O	< 20
CC(C)C[C@H](NC(=O)[C@@H](NC(=O)[C@@H](N)CCC(=O)O)C(C)C)C(=O)N[C@H](Cc1ccccc1)[C@@H](O)C(=O)N[C@@H](CC(=O)O)C(=O)N[C@@H](C)C(=O)N[C@@H](CCC(=O)O)C(=O)N[C@@H](Cc1ccccc1)C(=O)O	66
CC(C)C[C@H](NC(=O)[C@@H](NC(=O)[C@@H](N)CCC(=O)O)C(C)C)C(=O)N[C@H](Cc1ccccc1)[C@@H](O)C(=O)N[C@@H](CC(N)=O)C(=O)N[C@@H](C)C(=O)N[C@@H](CCC(=O)O)C(=O)N[C@@H](Cc1ccccc1)C(=O)O	22
CC(C)C[C@H](NC(=O)[C@@H](NC(=O)[C@@H](N)CCC(=O)O)C(C)C)C(=O)N[C@H](Cc1ccccc1)[C@@H](O)C(=O)N[C@@H](CCC(=O)O)C(=O)N[C@@H](C)C(=O)N[C@@H](CCC(=O)O)C(=O)N[C@@H](Cc1ccccc1)C(=O)O	47
CC(C)C[C@H](NC(=O)[C@@H](NC(=O)[C@@H](N)CCC(=O)O)C(C)C)C(=O)N[C@H](Cc1ccccc1)[C@@H](O)C(=O)N[C@@H](CCC(N)=O)C(=O)N[C@@H](C)C(=O)N[C@@H](CCC(=O)O)C(=O)N[C@@H](Cc1ccccc1)C(=O)O	33
CC[C@@H](C)[C@H](NC(=O)[C@@H](N)CCC(=O)O)C(=O)N[C@@H](CC(C)C)C(=O)N[C@@H](Cc1ccccc1)[C@@H](O)C(=O)N[C@@H](CC(=O)O)C(=O)N[C@@H](C)C(=O)N[C@@H](CCC(=O)O)C(=O)N[C@@H](Cc1ccccc1)C(=O)O	26
CC(C)C[C@H](NC(=O)[C@H](Cc1ccccc1)NC(=O)[C@@H](N)CCC(=O)O)C(=O)N[C@@H](Cc1ccccc1)[C@@H](O)C(=O)N[C@@H](CC(=O)O)C(=O)N[C@@H](C)C(=O)N[C@@H](CCC(=O)O)C(=O)N[C@@H](Cc1ccccc1)C(=O)O (H-EFL[β3hPhe(2R-OH)]DAEF-OH)	< 20
CC(C)C[C@H](NC(=O)[C@H](CC(C)C)NC(=O)[C@@H](N)CCC(=O)O)C(=O)N[C@@H](Cc1ccccc1)[C@@H](O)C(=O)N[C@@H](CC(=O)O)C(=O)N[C@@H](C)C(=O)N[C@@H](CCC(=O)O)C(=O)N[C@@H](Cc1ccccc1)C(=O)O (H-ELL[β3hPhe(2R-OH)]DAEF-OH)	< 20
CSCC[C@H](NC(=O)[C@@H](N)CCC(=O)O)C(=O)N[C@@H](CC(C)C)C(=O)N[C@@H](Cc1ccccc1)[C@@H](O)C(=O)N[C@@H](CC(=O)O)C(=O)N[C@@H](C)C(=O)N[C@@H](CCC(=O)O)C(=O)N[C@@H](Cc1ccccc1)C(=O)O (H-EML[β3hPhe(2R-OH)]DAEF-OH)	< 20
CC(C)[C@H](NC(=O)[C@@H](N)CCC(=O)O)C(=O)N[C@@H](CC(=O)O)C(=O)N[C@@H](Cc1ccccc1)[C@@H](O)C(=O)N[C@@H](CC(=O)O)C(=O)N[C@@H](C)C(=O)N[C@@H](CCC(=O)O)C(=O)N[C@@H](Cc1ccccc1)C(=O)O (H-EVD[β3hPhe(2R-OH)]DAEF-OH)	25

Compound	inhibition [%]
CC(C)[C@H](NC(=O)[C@@H](N)CCC(=O)O)C(=O)N[C@@H](CCC(=O)O)C(=O)N[C@@H](Cc1ccccc1)[C@@H](O)C(=O)N[C@@H](CC(=O)O)C(=O)N[C@@H](C)C(=O)N[C@@H](CCC(=O)O)C(=O)N[C@@H](Cc1ccccc1)C(=O)O (H-EVE[β3hPhe(2R-OH)]DAEF-OH)	30
CC(C)[C@H](NC(=O)[C@@H](N)CCC(=O)O)C(=O)N[C@@H](CCCCN)C(=O)N[C@@H](Cc1ccccc1)[C@@H](O)C(=O)N[C@@H](CC(=O)O)C(=O)N[C@@H](C)C(=O)N[C@@H](CCC(=O)O)C(=O)N[C@@H](Cc1ccccc1)C(=O)O (H-EVK[β3hPhe(2R-OH)]DAEF-OH)	< 20
CC(C)C[C@H](NC(=O)[C@@H](NC(=O)[C@@H](N)CCC(=O)O)C(C)C)C(=O)N[C@@H](Cc1ccccc1)[C@@H](O)C(=O)N[C@@H](C)C(=O)N[C@@H](CCC(=O)O)C(=O)N[C@@H](CCC(=O)O)C(=O)N[C@@H](Cc1ccccc1)C(=O)O (H-EVL[β3hPhe(2R-OH)]AEEF-OH)	78
CC(C)C[C@H](NC(=O)[C@@H](NC(=O)[C@@H](N)CCC(=O)O)C(C)C)C(=O)N[C@@H](Cc1ccccc1)[C@@H](O)C(=O)N[C@@H](C)C(=O)N[C@@H](Cc1ccccc1)C(=O)N[C@@H](CCC(=O)O)C(=O)N[C@@H](Cc1ccccc1)C(=O)O (H-EVL[β3hPhe(2R-OH)]AFEF-OH)	60
CC(C)C[C@H](NC(=O)[C@H](C)NC(=O)[C@H](O)[C@H](Cc1ccccc1)NC(=O)[C@H](CC(C)C)NC(=O)[C@@H](NC(=O)[C@@H](N)CCC(=O)O)C(C)C)C(=O)N[C@@H](CCC(=O)O)C(=O)N[C@@H](Cc1ccccc1)C(=O)O (H-EVL[β3hPhe(2R-OH)]ALEF-OH)	41
CC(C)C[C@H](NC(=O)[C@@H](NC(=O)[C@@H](N)CCC(=O)O)C(C)C)C(=O)N[C@@H](Cc1ccccc1)[C@@H](O)C(=O)N[C@@H](C)C(=O)N[C@H](C(=O)N[C@@H](CCC(=O)O)C(=O)N[C@@H](Cc1ccccc1)C(=O)O)C(C)C (H-EVL[β3hPhe(2R-OH)]AVEF-OH)	30
CC(C)C[C@H](NC(=O)[C@@H](NC(=O)[C@@H](N)CCC(=O)O)C(C)C)C(=O)N[C@@H](Cc1ccccc1)[C@@H](O)C(=O)N[C@@H](CC(=O)O)C(=O)N[C@@H](C)C(=O)N[C@@H](Cc1ccccc1)C(=O)N[C@@H](Cc1ccccc1)C(=O)O (H-EVL[β3hPhe(2R-OH)]DAFF-OH)	67
CC(C)C[C@H](NC(=O)[C@H](C)NC(=O)[C@H](CC(=O)O)NC(=O)[C@H](O)[C@H](Cc1ccccc1)NC(=O)[C@H](CC(C)C)NC(=O)[C@@H](NC(=O)[C@@H](N)CCC(=O)O)C(C)C)C(=O)N[C@@H](Cc1ccccc1)C(=O)O (H-EVL[β3hPhe(2R-OH)]DALF-OH)	57
CC(C)C[C@H](NC(=O)[C@@H](NC(=O)[C@@H](N)CCC(=O)O)C(C)C)C(=O)N[C@@H](Cc1ccccc1)[C@@H](O)C(=O)N[C@@H](CC(=O)O)C(=O)N[C@@H](C)C(=O)N[C@@H](CCC(N)=O)C(=O)N[C@@H](Cc1ccccc1)C(=O)O (H-EVL[β3hPhe(2R-OH)]DAQF-OH)	56
CC(C)C[C@H](NC(=O)[C@@H](NC(=O)[C@@H](N)CCC(=O)O)C(C)C)C(=O)N[C@@H](Cc1ccccc1)[C@@H](O)C(=O)N[C@@H](CC(=O)O)C(=O)N[C@@H](C)C(=O)N[C@H](C(=O)N[C@@H](Cc1ccccc1)C(=O)O)C(C)C (H-EVL[β3hPhe(2R-OH)]DAVF-OH)	57
CSCC[C@H](NC(=O)[C@@H](NC(=O)[C@@H](N)CCC(=O)O)C(C)C)C(=O)N[C@@H](Cc1ccccc1)[C@@H](O)C(=O)N[C@@H](CC(=O)O)C(=O)N[C@@H](C)C(=O)N[C@@H](CCC(=O)O)C(=O)N[C@@H](Cc1ccccc1)C(=O)O (H-EVM[β3hPhe(2R-OH)]DAEF-OH)	42
CC(C)C[C@H](NC(=O)[C@H](CC(N)=O)NC(=O)[C@@H](NC(=O)[C@@H](N)CCC(=O)O)C(C)C)[C@@H](O)C(=O)N[C@@H](CC(=O)O)C(=O)N[C@@H](C)C(=O)N[C@@H](CCC(=O)O)C(=O)N[C@@H](Cc1ccccc1)C(=O)O (H-EVN[X1]DAEF-OH)	< 20
CC(C)[C@H](NC(=O)[C@@H](N)CCC(=O)O)C(=O)N[C@@H](CC(N)=O)C(=O)N[C@@H](Cc1ccccc1)[C@@H](O)C(=O)N[C@@H](CC(=O)O)C(=O)N[C@@H](C)C(=O)N[C@@H](CCC(=O)O)C(=O)N[C@@H](Cc1ccccc1)C(=O)O (H-EVN[β3hPhe(2R-OH)]DAEF-OH)	24
CC(C)[C@H](NC(=O)[C@@H](N)CCC(=O)O)C(=O)N[C@@H](CCC(N)=O)C(=O)N[C@@H](Cc1ccccc1)[C@@H](O)C(=O)N[C@@H](CC(=O)O)C(=O)N[C@@H](C)C(=O)N[C@@H](CCC(=O)O)C(=O)N[C@@H](Cc1ccccc1)C(=O)O (H-EVQ[β3hPhe(2R-OH)]DAEF-OH)	36
CC(C)C[C@H](NC(=O)[C@@H](NC(=O)[C@@H](N)CCC(=O)O)C(C)C)C(=O)N[C@@H](Cc1ccccc1)[C@@H](O)C(=O)N[C@@H](CC(=O)O)C(=O)N[C@@H](C)C(=O)N[C@@H](CCC(=O)O)C(=O)N[C@@H](Cc1ccccc1)C(=O)O [HGLUVALLEUPNSASPALAGLUPHEOH]	> 90
